The source of these data is the kinase profiling compilation of Christmann-Franck et al. (2016).

What all share (assay): radiometric filter-binding kinase assay, Kinaseprofiler
The subject of experiment [1] is AKT1 (human), P31749 [S478G]. As to conditions: ATP 155 µM.
For experiment [2], the system named is GSK3A (human), P49840 [S449A]. As to conditions: ATP 10 µM.
The test system of experiment [3] is SGK2 (human), Q9HBY8 [S416D]. The following applies: ATP 15 µM.
The test system of experiment [4] is TAOK3 (human), Q9H2K8 [N47S]. The following applies: ATP 15 µM.
Experiment [5] deals with TEK (human), Q02763 [Q939H/Q940H]. The following applies: ATP 200 µM.
Chain of TEK (human), Q02763 [Q939H/Q940H] (Q02763 whole entry Q939H/Q940H, looked up): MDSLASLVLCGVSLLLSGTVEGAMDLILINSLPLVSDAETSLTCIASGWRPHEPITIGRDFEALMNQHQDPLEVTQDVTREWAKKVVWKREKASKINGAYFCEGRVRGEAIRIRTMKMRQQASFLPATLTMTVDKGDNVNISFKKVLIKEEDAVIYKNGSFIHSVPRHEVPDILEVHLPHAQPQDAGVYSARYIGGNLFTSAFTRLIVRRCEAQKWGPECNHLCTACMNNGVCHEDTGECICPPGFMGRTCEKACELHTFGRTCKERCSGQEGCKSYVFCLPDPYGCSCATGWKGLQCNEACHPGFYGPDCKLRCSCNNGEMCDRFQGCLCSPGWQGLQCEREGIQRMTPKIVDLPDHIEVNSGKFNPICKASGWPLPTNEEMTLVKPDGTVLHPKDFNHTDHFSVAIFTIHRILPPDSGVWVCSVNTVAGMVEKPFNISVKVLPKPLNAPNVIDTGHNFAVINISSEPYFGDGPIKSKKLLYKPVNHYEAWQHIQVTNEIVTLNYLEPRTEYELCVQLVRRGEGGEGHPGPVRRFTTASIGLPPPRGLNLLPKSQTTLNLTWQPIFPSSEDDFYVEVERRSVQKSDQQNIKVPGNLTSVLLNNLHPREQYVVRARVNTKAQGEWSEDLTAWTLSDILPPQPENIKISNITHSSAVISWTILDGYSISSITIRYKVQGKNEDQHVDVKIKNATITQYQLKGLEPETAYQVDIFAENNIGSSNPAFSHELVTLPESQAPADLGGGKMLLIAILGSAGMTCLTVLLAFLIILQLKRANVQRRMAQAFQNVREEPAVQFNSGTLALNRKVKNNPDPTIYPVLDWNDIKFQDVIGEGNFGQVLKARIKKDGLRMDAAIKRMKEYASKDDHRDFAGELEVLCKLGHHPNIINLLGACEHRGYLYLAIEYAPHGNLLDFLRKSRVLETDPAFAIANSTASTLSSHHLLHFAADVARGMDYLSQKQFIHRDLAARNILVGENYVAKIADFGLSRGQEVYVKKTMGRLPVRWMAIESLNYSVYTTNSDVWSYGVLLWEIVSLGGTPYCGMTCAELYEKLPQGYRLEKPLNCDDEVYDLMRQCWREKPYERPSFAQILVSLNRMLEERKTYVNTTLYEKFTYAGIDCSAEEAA
The target of experiment [6] is CDK2 CCNA2 (human) (UniProt P24941+P20248). As to conditions: ATP 45 µM.
Experiment [7] addresses CDK2 CCNE1 (human) (UniProt P24941+P24864). As to conditions: ATP 120 µM.
Experiment [8] deals with CDK3 CCNE1 (human) (UniProt Q00526+P24864). The following applies: ATP 200 µM.
Chain of CDK3 CCNE1 (human) (P24864 whole entry, looked up): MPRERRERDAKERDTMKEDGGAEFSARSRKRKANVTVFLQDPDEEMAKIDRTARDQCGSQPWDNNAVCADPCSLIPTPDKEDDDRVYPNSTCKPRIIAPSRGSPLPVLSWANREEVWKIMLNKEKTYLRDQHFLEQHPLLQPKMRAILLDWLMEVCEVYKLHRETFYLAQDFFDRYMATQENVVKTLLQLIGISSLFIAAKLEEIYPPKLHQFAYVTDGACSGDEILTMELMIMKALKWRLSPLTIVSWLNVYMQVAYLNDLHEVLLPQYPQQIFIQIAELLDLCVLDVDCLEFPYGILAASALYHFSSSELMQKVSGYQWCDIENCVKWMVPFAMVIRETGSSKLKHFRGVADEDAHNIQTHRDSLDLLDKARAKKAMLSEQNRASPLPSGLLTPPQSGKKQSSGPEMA
Chain of CDK3 CCNE1 (human) (Q00526 whole entry, looked up): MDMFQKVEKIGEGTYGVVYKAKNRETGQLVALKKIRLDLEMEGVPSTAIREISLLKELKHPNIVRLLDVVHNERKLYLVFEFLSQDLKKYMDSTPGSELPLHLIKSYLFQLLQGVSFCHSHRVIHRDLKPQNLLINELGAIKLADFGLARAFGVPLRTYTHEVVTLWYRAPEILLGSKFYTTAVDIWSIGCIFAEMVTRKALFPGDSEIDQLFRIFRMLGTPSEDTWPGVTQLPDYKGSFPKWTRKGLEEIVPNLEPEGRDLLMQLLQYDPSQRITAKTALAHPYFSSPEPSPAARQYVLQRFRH
For experiment [9], the target named is CDK7 CCNH MNAT1 (human) (UniProt P50613+P51948+P51946). The following applies: ATP 90 µM.
For experiment [10], the target named is MTOR FKBP1A (human) (UniProt P42345+P62942). As to conditions: ATP 45 µM.
Chain of MTOR FKBP1A (human) (P62942 whole entry, looked up, other chains not shown): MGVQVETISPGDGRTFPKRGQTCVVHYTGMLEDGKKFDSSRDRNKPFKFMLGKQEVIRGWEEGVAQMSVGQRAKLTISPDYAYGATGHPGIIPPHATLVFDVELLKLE
Experiment [11] addresses PRKAA2 PRKAB1 PRKAG1 (human) (UniProt P54619+P54646+Q9Y478). The following applies: ATP 45 µM.

Chain of AKT1 (human), P31749 [S478G] (P31749 whole entry, looked up, stated change not applied): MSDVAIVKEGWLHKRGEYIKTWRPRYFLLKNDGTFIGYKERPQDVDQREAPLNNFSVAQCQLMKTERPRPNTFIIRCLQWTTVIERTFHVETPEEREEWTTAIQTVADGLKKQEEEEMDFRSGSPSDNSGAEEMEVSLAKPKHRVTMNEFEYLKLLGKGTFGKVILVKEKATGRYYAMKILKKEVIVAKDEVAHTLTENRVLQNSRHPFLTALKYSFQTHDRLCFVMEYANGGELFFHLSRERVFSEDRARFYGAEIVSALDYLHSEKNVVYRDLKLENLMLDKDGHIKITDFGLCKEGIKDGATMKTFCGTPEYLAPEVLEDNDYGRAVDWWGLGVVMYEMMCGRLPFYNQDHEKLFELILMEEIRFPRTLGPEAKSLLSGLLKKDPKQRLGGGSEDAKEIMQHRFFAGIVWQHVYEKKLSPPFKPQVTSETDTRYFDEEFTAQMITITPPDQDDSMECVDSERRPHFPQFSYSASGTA
Chain of PRKAA2 PRKAB1 PRKAG1 (human) (P54619 whole entry, looked up): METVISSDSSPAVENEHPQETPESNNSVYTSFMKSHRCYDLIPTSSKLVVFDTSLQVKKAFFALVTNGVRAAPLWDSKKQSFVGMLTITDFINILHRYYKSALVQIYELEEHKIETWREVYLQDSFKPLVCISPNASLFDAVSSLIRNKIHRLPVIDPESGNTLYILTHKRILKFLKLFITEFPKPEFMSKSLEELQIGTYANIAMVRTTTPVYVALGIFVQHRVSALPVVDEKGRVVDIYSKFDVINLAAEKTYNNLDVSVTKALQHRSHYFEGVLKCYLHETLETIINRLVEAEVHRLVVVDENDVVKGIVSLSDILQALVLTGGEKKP
Chain of PRKAA2 PRKAB1 PRKAG1 (human) (P54646 whole entry, looked up): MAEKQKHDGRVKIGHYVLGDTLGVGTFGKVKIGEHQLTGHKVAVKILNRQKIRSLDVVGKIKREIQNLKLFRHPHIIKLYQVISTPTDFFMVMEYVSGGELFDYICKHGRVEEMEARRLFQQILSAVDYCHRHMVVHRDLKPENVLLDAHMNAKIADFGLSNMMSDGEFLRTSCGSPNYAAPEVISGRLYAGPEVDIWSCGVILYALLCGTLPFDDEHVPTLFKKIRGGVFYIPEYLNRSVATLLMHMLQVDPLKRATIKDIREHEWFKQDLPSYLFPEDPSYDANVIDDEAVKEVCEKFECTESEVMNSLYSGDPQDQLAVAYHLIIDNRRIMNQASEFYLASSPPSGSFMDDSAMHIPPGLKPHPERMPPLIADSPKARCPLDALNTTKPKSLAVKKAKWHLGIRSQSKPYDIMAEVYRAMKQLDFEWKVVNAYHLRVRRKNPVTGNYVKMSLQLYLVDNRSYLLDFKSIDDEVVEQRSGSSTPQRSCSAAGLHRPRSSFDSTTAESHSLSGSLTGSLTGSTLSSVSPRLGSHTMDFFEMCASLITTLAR
Chain of PRKAA2 PRKAB1 PRKAG1 (human) (Q9Y478 whole entry, looked up): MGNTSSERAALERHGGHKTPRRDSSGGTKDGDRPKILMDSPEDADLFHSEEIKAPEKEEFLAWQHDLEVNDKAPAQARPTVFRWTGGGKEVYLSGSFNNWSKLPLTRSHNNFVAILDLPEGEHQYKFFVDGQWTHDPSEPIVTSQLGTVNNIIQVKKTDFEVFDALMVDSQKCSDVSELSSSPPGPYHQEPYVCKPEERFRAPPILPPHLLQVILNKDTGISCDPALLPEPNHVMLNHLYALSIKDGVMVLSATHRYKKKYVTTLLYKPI
Chain of CDK2 CCNE1 (human) (P24864 whole entry, looked up, other chains not shown): as the sequence (P24864 whole entry, looked up) above
Chain of GSK3A (human), P49840 [S449A] (P49840 whole entry, looked up, stated change not applied): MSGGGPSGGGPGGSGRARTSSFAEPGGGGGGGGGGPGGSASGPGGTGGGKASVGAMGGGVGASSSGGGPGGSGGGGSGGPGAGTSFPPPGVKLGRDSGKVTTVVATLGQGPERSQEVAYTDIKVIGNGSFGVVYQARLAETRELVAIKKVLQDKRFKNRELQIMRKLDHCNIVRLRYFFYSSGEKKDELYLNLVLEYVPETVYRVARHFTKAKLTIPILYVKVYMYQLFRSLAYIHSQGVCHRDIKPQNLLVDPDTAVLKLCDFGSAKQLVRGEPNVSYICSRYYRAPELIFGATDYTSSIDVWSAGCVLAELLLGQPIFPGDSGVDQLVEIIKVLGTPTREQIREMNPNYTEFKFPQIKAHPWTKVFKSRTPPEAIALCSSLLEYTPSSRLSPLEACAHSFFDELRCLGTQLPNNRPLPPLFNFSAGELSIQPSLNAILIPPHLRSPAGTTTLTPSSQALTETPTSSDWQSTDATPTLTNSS
Chain of SGK2 (human), Q9HBY8 [S416D] (Q9HBY8 whole entry, looked up, stated change not applied): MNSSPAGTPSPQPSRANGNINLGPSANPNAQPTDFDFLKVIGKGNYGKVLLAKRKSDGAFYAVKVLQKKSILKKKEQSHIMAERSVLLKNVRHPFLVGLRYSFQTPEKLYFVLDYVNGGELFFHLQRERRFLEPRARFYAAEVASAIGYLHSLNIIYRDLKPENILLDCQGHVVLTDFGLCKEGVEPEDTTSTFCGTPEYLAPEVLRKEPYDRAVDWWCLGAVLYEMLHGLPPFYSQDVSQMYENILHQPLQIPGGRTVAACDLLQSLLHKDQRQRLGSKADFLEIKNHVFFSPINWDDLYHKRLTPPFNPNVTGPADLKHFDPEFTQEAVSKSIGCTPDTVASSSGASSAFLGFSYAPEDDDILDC

As usually defined, the residual activity is the signal under treatment as a percentage of the control signal. On to `O=C1Nc2ccccc2/C1=C1\Nc2ccccc2\C1=N/O`, for which the residual activity in experiment [1] (compound 1.0 µM) was 107%; in experiment [1] (compound 10.0 µM), 98%; in experiment [2] (compound 1.0 µM) it was 5%; in experiment [2] (compound 10.0 µM), 1%; in [3] (compound 1.0 µM) it was 61%; in experiment [3] (compound 10.0 µM) it was 24%. The residual activity worked out at 85% in experiment [4] (compound 1.0 µM), 28% in [4] (compound 10.0 µM), 103% in experiment [5] (compound 1.0 µM) and 41% in experiment [5] (compound 10.0 µM).
Turning to `O=C(Nc1cccc(Nc2nccc(Nc3cccc(C(F)(F)F)c3)n2)c1)C1CC1`, the residual activity in experiment [5] (compound 10.0 µM) came to 17%.
For `CO[C@H]1CC2CC[C@@H](C)[C@@](O)(O2)C(=O)C(=O)N2CCCC[C@H]2C(=O)OC([C@H](C)C[C@@H]2CC[C@@H](O)[C@H](OC)C2)CC(=O)[C@H](C)/C=C(\C)[C@@H](O)[C@@H](OC)C(=O)[C@H](C)C[C@H](C)/C=C/C=C/C=C/1C` (stereo partly drawn), the residual activity in experiment [6] (compound 1.0 µM) was determined as 129%; in experiment [6] (compound 10.0 µM) it was 113%; in [7] (compound 1.0 µM), 105%; in experiment [7] (compound 10.0 µM) it was 96%; in [8] (compound 1.0 µM) it was 90%; in [8] (compound 10.0 µM), 86%. The residual activity in experiment [9] (compound 1.0 µM) was 88%; in experiment [9] (compound 10.0 µM) it was 94%; in [10] (compound 1.0 µM), -17%; in experiment [10] (compound 10.0 µM), 4%; in [11] (compound 1.0 µM), 93%; in [11] (compound 10.0 µM) it was 107%.
